From patent US4482565A, “β-Lactam-containing antibacterial agents and β-lactamase inhibitors” (Farmitalia Carlo Erba S.p.A., priority 1981, dated 1984)
≈ marks a conversion by molar mass, not a printed value. Like-named read-outs stand apart in the source and are kept apart here.

Key:
Type in all cases: cell-based
[1] = test system: Staphylococcus aureus 209P; test: in vitro antibacterial activity (MIC); conditions: collection strain, read-out: MIC (minimal inhibitory concentration)
Escherichia coli B Cef R = test: in vitro antibacterial activity (MIC); conditions: read-out: MIC (minimal inhibitory concentration)
[2] = test system: Pseudomonas aeruginosa ATCC 2598; test: in vitro antibacterial activity (MIC); conditions: ATCC2598, collection strain, read-out: MIC (minimal inhibitory concentration)
[3] = test system: Staphylococcus aureus 153; test: in vitro antibacterial activity (MIC); conditions: lactamase producer, read-out: MIC (minimal inhibitory concentration)
Escherichia coli P 453 = test: in vitro antibacterial activity (MIC); conditions: P453; in vitro; Escherichia coli P 453; lactamase producer; read-out: MIC (minimal inhibitory concentration)
Pseudomonas aeruginosa = test: in vitro antibacterial activity (MIC); conditions: read-out: MIC (minimal inhibitory concentration)
Salmonella typhimurium [4] = test: in vitro antibacterial activity (MIC), collection strain; conditions: Salmonella enterica; in vitro; Salmonella Typhimurium; collection strain (second listing); read-out: MIC (minimal inhibitory concentration)
Escherichia coli RP 1 = test: in vitro antibacterial activity (MIC); conditions: RP1, read-out: MIC (minimal inhibitory concentration)
Enterobacter cloacae 214 = test: in vitro antibacterial activity (MIC); conditions: lactamase producer, read-out: MIC (minimal inhibitory concentration)
Escherichia coli R 57 B = test: in vitro antibacterial activity (MIC); conditions: R57B; in vitro; Escherichia coli R 57 B; lactamase producer; read-out: MIC (minimal inhibitory concentration)
Escherichia coli B = test: in vitro antibacterial activity (MIC); conditions: in vitro; Escherichia coli B; collection strain; read-out: MIC (minimal inhibitory concentration)
Escherichia coli RGN 238 = test: in vitro antibacterial activity (MIC); conditions: RGN238, lactamase producer, read-out: MIC (minimal inhibitory concentration)
Escherichia coli R 6 K = test: in vitro antibacterial activity (MIC); conditions: R6K, read-out: MIC (minimal inhibitory concentration)
[5] = test system: Pseudomonas aeruginosa FI; test: in vitro antibacterial activity (MIC); conditions: collection strain, read-out: MIC (minimal inhibitory concentration)
Salmonella typhimurium [6] = test: in vitro antibacterial activity (MIC); conditions: Salmonella enterica, Salmonella typhimurium (first listing), read-out: MIC (minimal inhibitory concentration)
Proteus mirabilis = test: in vitro antibacterial activity (MIC), collection strain; conditions: in vitro, collection strain, read-out: MIC (minimal inhibitory concentration)
[7] = test system: Enterobacter cloacae P 99; test: in vitro antibacterial activity (MIC); conditions: P99, read-out: MIC (minimal inhibitory concentration)
Escherichia coli R 997 = test: in vitro antibacterial activity (MIC); conditions: R997, read-out: MIC (minimal inhibitory concentration)
[8] = test system: Staphylococcus aureus Smith; test: in vitro antibacterial activity (MIC); conditions: collection strain, read-out: MIC (minimal inhibitory concentration)
Streptococcus pyogenes = test: in vitro antibacterial activity (MIC); conditions: in vitro, read-out: MIC (minimal inhibitory concentration)
Escherichia coli R 46 = test: in vitro antibacterial activity (MIC); conditions: R46; in vitro; Escherichia coli R 46; lactamase producer; read-out: MIC (minimal inhibitory concentration)
[9] = test system: Klebsiella pneumoniae ATCC 10031; test: in vitro antibacterial activity (MIC), second listing of the strain; conditions: ATCC10031, collection strain (second listing), read-out: MIC (minimal inhibitory concentration)
[10] = test system: Salmonella abortivoequina; test: in vitro antibacterial activity (MIC); conditions: collection strain, read-out: MIC (minimal inhibitory concentration)
[11] = test system: Klebsiella aerogenes ATCC 1082 E; test: in vitro antibacterial activity (MIC); conditions: ATCC1082; in vitro; Klebsiella aerogenes ATCC 1082 E; lactamase producer; read-out: MIC (minimal inhibitory concentration)
[12] = test system: Salmonella montevideo F16; test: in vitro antibacterial activity (MIC); conditions: Salmonella enterica, read-out: MIC (minimal inhibitory concentration)
[13] = test system: Salmonella Saint Paul F20; test: in vitro antibacterial activity (MIC); conditions: read-out: MIC (minimal inhibitory concentration)
[14] = test system: Staphylococcus aureus PV2; test: in vitro antibacterial activity (MIC); conditions: read-out: MIC (minimal inhibitory concentration)
Klebsiella sp. R2 = test: in vitro antibacterial activity (MIC); conditions: read-out: MIC (minimal inhibitory concentration)
Proteus mirabilis V15 = test: in vitro antibacterial activity (MIC); conditions: read-out: MIC (minimal inhibitory concentration)
Escherichia coli V23 = test: in vitro antibacterial activity (MIC); conditions: read-out: MIC (minimal inhibitory concentration)
Salmonella derby F14 = test: in vitro antibacterial activity (MIC); conditions: Salmonella enterica, read-out: MIC (minimal inhibitory concentration)
Escherichia coli V14 = test: in vitro antibacterial activity (MIC); conditions: read-out: MIC (minimal inhibitory concentration)
Enterobacter sp V19 = test: in vitro antibacterial activity (MIC); conditions: read-out: MIC (minimal inhibitory concentration)
Proteus mirabilis 525 = test: in vitro antibacterial activity (MIC); conditions: in vitro; Proteus mirabilis 525; read-out: MIC (minimal inhibitory concentration)
Proteus vulgaris V15 = test: in vitro antibacterial activity (MIC); conditions: read-out: MIC (minimal inhibitory concentration)
Shigella flexneri = test: in vitro antibacterial activity (MIC); conditions: read-out: MIC (minimal inhibitory concentration)
Method: A series of tests was carried out in vitro to compare the activities of (5R)-acetoxymethyl-2-acetoxymethyl-2-penum-3-carboxylate (Laboratory code FCE/20077/B40/341), (5R) acetoxymethyl-2-[(1-methyl-1H-tetrazol-5-yl)-thiomethyl]-2-penem-3-carboxylate (compound A), three reference compounds (ampicillin, cefoxitin, and thienamycin), and compound 387, which is (5R)-2-acetoxymethyl-6-(1-hydroxyethyl)-2-penem-3-carboxylic acid. The acetoxymethoxy ester of compound 387 is prepared in Example 51 and the sodium salt of the acid is prepared in Example 98 infra. Table 1 below reports the results of the above assays as MIC (minimal inhibitory concentration).

Salmonella panamae F15 = test: in vitro antibacterial activity (MIC); conditions: in vitro; Salmonella panamae F15; read-out: MIC (minimal inhibitory concentration)

| Structure (SMILES) | MIC [1] [µg/mL] | MIC (Escherichia coli B Cef R) [µg/mL] | MIC [3] [µg/mL] | MIC (Escherichia coli P 453) [µg/mL] | MIC (Pseudomonas aeruginosa; in vitro) [µg/mL] | MIC (Escherichia coli RP 1) [µg/mL] | MIC (Escherichia coli B) [µg/mL] | MIC (Escherichia coli RGN 238) [µg/mL] | MIC (Escherichia coli R 6 K) [µg/mL] | MIC [5] [µg/mL] | MIC (Salmonella typhimurium [6]) [µg/mL] | MIC (Escherichia coli R 997) [µg/mL] | MIC [8] [µg/mL] | MIC (Streptococcus pyogenes) [µg/mL] | MIC [9] [µg/mL] | MIC [11] [µg/mL] | other results |
| --- | --- | --- | --- | --- | --- | --- | --- | --- | --- | --- | --- | --- | --- | --- | --- | --- | --- |
| CC(=O)OCC1=C(C(=O)O)N2C(=O)C(C(C)O)[C@H]2S1 (stereo partly drawn) [Example 387, (5R)-2-acetoxymethyl-6-(1-hydroxyethyl)-2-penem-3-carboxylic acid] | 0.095 (≈ 0.331 µM) | 25 (≈ 87 µM) | 0.045 (≈ 0.157 µM) | 0.78 (≈ 2.71 µM) | 1.56 (≈ 5.43 µM) | 0.39 (≈ 1.36 µM) | 0.78 (≈ 2.71 µM) | 0.78 (≈ 2.71 µM) | 0.78 (≈ 2.71 µM) | 1.56 (≈ 5.43 µM) | 0.39 (≈ 1.36 µM) | 0.78 (≈ 2.71 µM) | 0.045 (≈ 0.157 µM) | 0.19 (≈ 0.661 µM) | 0.78 (≈ 2.71 µM) | 1.56 (≈ 5.43 µM) | MIC [2]: > 25 µg/mL; MIC (Salmonella typhimurium [4]): 0.39 µg/mL (≈ 1.36 µM); MIC (Enterobacter cloacae 214): 12.5 µg/mL (≈ 43.5 µM); MIC (Escherichia coli R 57 B): 0.78 µg/mL (≈ 2.71 µM); MIC (Proteus mirabilis): 0.39 µg/mL (≈ 1.36 µM); MIC [7]: 3.12 µg/mL (≈ 10.9 µM); MIC (Escherichia coli R 46): 0.78 µg/mL (≈ 2.71 µM); MIC [10]: 0.19 µg/mL (≈ 0.661 µM) |
| CC(=O)OCOC(=O)C1=C(COC(C)=O)S[C@@H]2CC(=O)N12 [FCE/20077/B40/341, (5R)-Acetoxymethyl-2-acetoxymethyl-2-penem-3-carboxylate] | 0.39 (≈ 1.24 µM) | – | 1.56 (≈ 4.95 µM) | – | 3.12 (≈ 9.9 µM) | – | 1.56 (≈ 4.95 µM) | – | – | – | 1.56 (≈ 4.95 µM) | – | ≤ 0.19 | 3.12 (≈ 9.9 µM) | – | – | MIC [12]: 3.12 µg/mL (≈ 9.9 µM); MIC [13]: 1.56 µg/mL (≈ 4.95 µM); MIC [14]: 0.39 µg/mL (≈ 1.24 µM); MIC (Klebsiella sp. R2): 25 µg/mL (≈ 79.3 µM); MIC (Proteus mirabilis V15): 0.39 µg/mL (≈ 1.24 µM); MIC (Escherichia coli V23): 3.12 µg/mL (≈ 9.9 µM); MIC (Salmonella derby F14): 3.12 µg/mL (≈ 9.9 µM); MIC (Escherichia coli V14): 1.56 µg/mL (≈ 4.95 µM); MIC (Enterobacter sp V19): 12.5 µg/mL (≈ 39.6 µM); MIC (Proteus mirabilis 525): 3.12 µg/mL (≈ 9.9 µM); MIC (Proteus vulgaris V15): 3.12 µg/mL (≈ 9.9 µM); MIC (Shigella flexneri): 0.39 µg/mL (≈ 1.24 µM); MIC (Salmonella panamae F15): 1.56 µg/mL (≈ 4.95 µM) |
| C[C@@H](O)[C@H]1C(=O)N2C(C(=O)O)=C(SCCN)C[C@H]12 [Thienamycin] | ≤ 0.39 | 12.5 (≈ 45.9 µM) | – | 0.78 (≈ 2.86 µM) | – | 0.36 (≈ 1.32 µM) | 0.78 (≈ 2.86 µM) | 0.36 (≈ 1.32 µM) | 0.78 (≈ 2.86 µM) | 12.5 (≈ 45.9 µM) | – | 0.36 (≈ 1.32 µM) | – | – | 1.56 (≈ 5.73 µM) | 1.56 (≈ 5.73 µM) | MIC (Pseudomonas aeruginosa): 12.5 µg/mL (≈ 45.9 µM) |
